Values of other authors as cited in US20190382321A1, “ACID-RESISTANT UREASE INHIBITOR ADDUCT-[…] COMPOSITIONS” (Koch Agronomic Services, LLC, priority 2017, published 2019).

Details: blend of NBPT-containing urea and one or more acidic fertilizers

SMILES: CCCCNP(N)(N)=S [NBPT, N-(n-butyl) thiophosphoric triamide]
- time to almost complete decomposition after blending: 1-2 weeks
